Measured values from US11999727B2 (Tango Therapeutics, Inc., priority 2020, dated 2024).
Where two headings read alike, the source gives them in different places.

Assays:
PRMT5 [1] = molecular target: T1, PRMT5 (Homo sapiens, UniProt O14744); test: PRMT5 biochemical IC50 assay with no cofactor; conditions: PRMT5, no cofactor
T1 construct: purchased Viva (custom protein)
Description: Table 1 indicates IC50 values (μM) against PRMT5 for exemplary compounds in the presence of SAM as cofactor, with no cofactor, and with MTA as cofactor, respectively (columns 4-6). […] Ki values can be calculated from the IC50 values as described in the Examples section. As detailed in the Examples section, for the assay performed in the presence of SAM, IC50=Ki×1.5 (Ki=IC50/1.5).

PRMT5 [2] = molecular target: T1, PRMT5; test: PRMT5 biochemical IC50 assay with MTA as cofactor; conditions: PRMT5, MTA as cofactor; read-out: MTA IC50
PRMT5 [3] = molecular target: T1, PRMT5; test: PRMT5 biochemical IC50 assay with SAM as cofactor; conditions: PRMT5, SAM as cofactor; read-out: SAM IC50
[4] = test system: HAP1 MTAP-deleted cell line; test: Viability assay, MTAP-deleted cell line; assay type: cell-based; conditions: MTAP-deleted cell line, read-out: HAP1 MTAP deleted viability
Description: Table 1 additionally indicates IC50 values in a viability assay for the MTAP-deleted cell line (column 10), indicating the effect of treatment with compound on cell survival.

[5] = Homo sapiens, HAP1, viability assay
[6] = read-out: No Cofactor/ rel IC50

T1 sequence (O14744 whole entry): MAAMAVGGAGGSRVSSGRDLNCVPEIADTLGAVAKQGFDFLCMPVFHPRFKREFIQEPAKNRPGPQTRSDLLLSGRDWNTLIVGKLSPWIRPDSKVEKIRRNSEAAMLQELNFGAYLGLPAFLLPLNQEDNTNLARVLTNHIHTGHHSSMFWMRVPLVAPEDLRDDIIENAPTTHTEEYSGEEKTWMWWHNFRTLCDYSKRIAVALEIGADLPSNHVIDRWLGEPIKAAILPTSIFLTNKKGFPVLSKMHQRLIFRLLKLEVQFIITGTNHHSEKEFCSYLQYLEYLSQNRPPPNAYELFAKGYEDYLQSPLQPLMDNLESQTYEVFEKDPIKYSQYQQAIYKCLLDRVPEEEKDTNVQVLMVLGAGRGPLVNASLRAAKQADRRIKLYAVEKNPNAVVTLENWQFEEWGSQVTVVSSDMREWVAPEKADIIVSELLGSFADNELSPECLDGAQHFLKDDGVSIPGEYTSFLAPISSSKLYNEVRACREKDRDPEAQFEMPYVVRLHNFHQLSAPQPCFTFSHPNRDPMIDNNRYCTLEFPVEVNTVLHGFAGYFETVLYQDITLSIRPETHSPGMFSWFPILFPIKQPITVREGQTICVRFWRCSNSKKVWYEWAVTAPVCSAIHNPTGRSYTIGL
T1 sequence (Q9BQA1 whole entry partner): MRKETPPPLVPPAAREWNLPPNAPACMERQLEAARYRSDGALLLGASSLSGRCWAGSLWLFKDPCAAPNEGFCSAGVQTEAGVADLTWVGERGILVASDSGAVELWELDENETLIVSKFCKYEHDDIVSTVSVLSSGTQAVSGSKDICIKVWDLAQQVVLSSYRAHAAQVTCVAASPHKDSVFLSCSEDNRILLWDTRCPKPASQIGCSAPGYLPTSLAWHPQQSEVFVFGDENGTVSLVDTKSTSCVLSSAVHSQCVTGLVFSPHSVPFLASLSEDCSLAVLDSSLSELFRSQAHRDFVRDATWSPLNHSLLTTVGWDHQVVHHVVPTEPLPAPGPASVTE

IC50 (PRMT5 [1]; read-out: No Cofactor/rel IC50) [nM] | IC50 (PRMT5 [2]) [nM] | IC50 (PRMT5 [3]) [nM] | IC50 (PRMT5 [1]; [6]) [nM] | Compound | IC50 [4, 5] [µM] | IC50 ([4]; viability assay) [µM]
50 to 500 | 50 to 500 | 50 to 500 |  | Cc1cc(NC(=O)C(=O)N2C[C@H](C)CC[C@H]2c2ccc(C(C)O)cc2)cnc1N (mixture of isomers) [Compound 956, N-(6-amino-5-methyl-3-pyridyl)-2-[(2R,5S)-2-[4-(1-hydroxyethyl)phenyl]-5-methyl-1-piperidyl]-2-oxo-acetamide] | 1 to 10 | 
 | 50 to 500 | > 500 | > 500 | Cn1nccc1C1CCCCN1C(=O)C(=O)Nc1cncc(C(N)=O)c1 (single isomer, unassigned) [Compound 59] | > 10 | 
 | 50 to 500 | > 500 | > 500 | Cc1cc(NC(=O)C(=O)N2C[C@@H]3CC[C@@H](C3)[C@@H]2c2ccccc2)cnc1N (single isomer, unassigned) [Compound 62] | > 10 | 
> 500 | 50 to 500 | 50 to 500 |  | COc1ncc(NC(=O)C(=O)N2C[C@H](C)CC[C@@H]2C2CCCC2)cc1C(N)=O (single isomer, unassigned) [Compound 312] | > 10 | 
50 to 500 | < 50 | 50 to 500 |  | C[C@@H]1CC[C@H](c2ccc(O)nc2)N(C(=O)C(=O)Nc2cncc(C(N)=O)c2)C1 (single isomer, unassigned) [Compound 401] | > 10 | 
> 500 | > 500 | > 500 |  | Cc1cc(NC(=O)C(=O)N2C[C@@H](C)CC[C@@H]2[C@H]2CC[C@@H](O)CC2)cnc1N (single isomer, unassigned) [Compound 423] | > 10 | 
> 500 | > 500 | > 500 |  | Cc1cc(NC(=O)C(=O)N2C[C@@H](C)CC[C@@H]2[C@H]2CC[C@H](O)CC2)cnc1N (single isomer, unassigned) [Compound 434] | > 10 | 
> 500 | > 500 | > 500 |  | CNc1ccc([C@H]2CC[C@H](C)CN2C(=O)C(=O)Nc2cncc(C(N)=O)c2)cn1 (single isomer, unassigned) [Compound 444] | > 10 | 
> 500 | > 500 | > 500 |  | CNc1cccc([C@H]2CC[C@H](C)CN2C(=O)C(=O)Nc2cnc(N)c(C)c2)c1 (single isomer, unassigned) [Compound 450] | > 10 | 
> 500 | > 500 | > 500 |  | CC(=O)Nc1ccc([C@H]2CC[C@H](C)CN2C(=O)C(=O)Nc2cncc(C(N)=O)c2)cc1 (single isomer, unassigned) [Compound 452] | > 10 | 
> 500 | > 500 | > 500 |  | C[C@H]1CC[C@H](c2ccc(NCC(F)(F)F)cc2)N(C(=O)C(=O)Nc2cncc(C(N)=O)c2)C1 (single isomer, unassigned) [Compound 456] | > 10 | 

The remaining lines, values behind:

Compound | IC50 (PRMT5 [1]; read-out: No Cofactor/rel IC50) [nM] | IC50 (PRMT5 [2]) [nM] | IC50 (PRMT5 [3]) [nM] | IC50 (PRMT5 [1]; [6]) [nM] | IC50 [4, 5] [µM] | IC50 ([4]; viability assay) [µM]
COc1ncc(NC(=O)C(=O)N2C[C@@H](C)CC[C@@H]2c2ccc3sc(N)nc3c2)cc1C(N)=O (racemic) [Compound 954, 5-[[2-[(2R,5S)-2-(2-amino-1,3-benzothiazol-5-yl)-5-methyl-1-piperidyl]-2-oxo-acetyl]amino]-2-methoxy-pyridine-3-carboxamide] | 50 to 500 | 50 to 500 | 50 to 500 |  | < 1 | 
Cc1cc(NC(=O)C(=O)N2C[C@H](C)CC[C@H]2c2ccc3[nH]c(N)nc3c2)cnc1N (racemic) [Compound 990] | 50 to 500 | < 50 | 50 to 500 |  | 1 to 10 | 
CC(=O)NCc1ccc([C@@H]2CC[C@@H](C)CN2C(=O)C(=O)Nc2cnc(N)c(C)c2)cc1 (racemic) [Compound 1036, rac-2-[(2R,5S)-2-[4-(Acetamidomethyl)phenyl]-5-methyl-1-piperidyl]-N-(6-amino-5-methyl-3-pyridyl)-2-oxo-acetamide] | 50 to 500 | 50 to 500 | 50 to 500 |  | 1 to 10 | 
C[C@@H]1CCC[C@H](c2ccccc2)N1C(=O)C(=O)Nc1cncc(C(N)=O)c1 (single isomer, unassigned) [Compound 278] | > 500 | 50 to 500 | > 500 |  | > 10 | 
COc1ncc(NC(=O)C(=O)N2CCCCC2C2CCCC2)cc1C(N)=O (single isomer, unassigned) [Compound 289, 5-(2-(2-cyclopentylpiperidin-1-yl)-2-oxoacetamido)-2-methoxynicotinamide] | > 500 | > 500 | > 500 |  |  | > 10
COc1ncc(NC(=O)C(=O)N2C[C@@H](C)CC[C@H]2C2CCCC2)cc1C(N)=O (single isomer, unassigned) [Compound 295] | > 500 | > 500 | > 500 |  | > 10 | 
CC(=O)N[C@H]1CC[C@H]([C@H]2CC[C@H](C)CN2C(=O)C(=O)Nc2cnc(N)c(C)c2)CC1 (single isomer, unassigned) [Compound 296] | > 500 | 50 to 500 | > 500 |  | > 10 | 
COc1ncc(NC(=O)C(=O)N2C[C@@H](C)CC[C@@H]2C2CCCC2)cc1C(N)=O (single isomer, unassigned) [Compound 298] | > 500 | > 500 | > 500 |  | > 10 | 
Cc1cc(NC(=O)C(=O)N2C[C@@H](C)[C@@H](C)C[C@H]2c2ccccc2)cnc1N (single isomer, unassigned) [Compound 304] | 50 to 500 | 50 to 500 | 50 to 500 |  | > 10 | 
COc1ncc(NC(=O)C(=O)N2C[C@H](C)CC[C@@H]2C2CCCCC2)cc1C(N)=O (single isomer, unassigned) [Compound 389] | > 500 | 50 to 500 | > 500 |  | > 10 | 
CNc1ccc([C@@H]2CC[C@@H](C)CN2C(=O)C(=O)Nc2cncc(C(N)=O)c2)cc1 (single isomer, unassigned) [Compound 424] | > 500 | > 500 | > 500 |  | > 10 | 
C[C@H]1CC[C@H](c2ccc3c(c2)CCCN3)N(C(=O)C(=O)Nc2cncc(C(N)=O)c2)C1 (single isomer, unassigned) [Compound 426] | > 500 | > 500 | > 500 |  | > 10 | 
C[C@@H]1CC[C@@H](c2ccccc2)N(C(=O)C(=O)Nc2cncc(C(N)=O)c2)[C@@H]1C (single isomer, unassigned) [Compound 435] | > 500 | > 500 | > 500 |  | > 10 | 
C[C@@H]1CC[C@@H](c2cccc(Cl)c2)N(C(=O)C(=O)Nc2cncc(C(N)=O)c2)C1 (single isomer, unassigned) [Compound 441] | > 500 | > 500 | > 500 |  | > 10 | 
COc1ncc(NC(=O)C(=O)N2C[C@@H](C)CC[C@@H]2c2ccc(F)cc2)cc1C(N)=O (single isomer, unassigned) [Compound 445] | > 500 | > 500 | > 500 |  | > 10 | 
